Assay results taken from publication PMC6474809 (Cell chemical biology, 2019).

Columns and labels:
H. influenzae NfsB [1] = target: T1, H. influenzae NfsB (Haemophilus influenzae, UniProt Q57431)
H. influenzae NfsB [2] = target: T1, H. influenzae NfsB; test: Michaelis-Menten kinetics by NADPH oxidation; format: biochemical
H. influenzae NfsB [3] = target: T1, H. influenzae NfsB; test: inhibition of chloramphenicol reduction by purified enzyme, monitored at […] nm; format: biochemical
H. influenzae NfsB [4] = target: T1, H. influenzae NfsB; test: TLC of flavin released from heat-denatured purified enzyme; format: binding
H. influenzae NfsB [5] = target: T1, H. influenzae NfsB; test: NAD; format: biochemical
[6] = system: O=C(N[C@H](CO)[C@H](O)c1ccc([N+](=O)[O-])cc1)C(Cl)Cl; test: purified protein; format: biochemical, Haemophilus influenzae; settings: FMN, NADPH
H. influenzae NfsB [7] = target: T1, H. influenzae NfsB; remark: listed apart in the source

T1 sequence (Q57431 whole entry): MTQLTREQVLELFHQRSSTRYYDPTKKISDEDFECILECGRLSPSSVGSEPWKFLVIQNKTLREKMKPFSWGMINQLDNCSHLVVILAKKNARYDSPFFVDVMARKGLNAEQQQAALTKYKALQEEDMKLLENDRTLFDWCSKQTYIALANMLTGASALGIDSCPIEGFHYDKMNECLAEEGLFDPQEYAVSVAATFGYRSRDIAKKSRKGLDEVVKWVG

Molecule: O=C1CN(/N=C/c2ccc([N+](=O)[O-])o2)C(=O)N1 [nitrofurantoin]
- Michaelis-Menten kinetics at 420 nm (kcat/KM) (H. influenzae NfsB [1]): 242890 M⁻¹ s⁻¹

Molecule: O=[N+]([O-])c1cccc(O)c1 [3-nitrophenol]
- Michaelis-Menten kinetics by NADPH oxidation (kcat/KM) (H. influenzae NfsB [2]): 61800 M⁻¹ s⁻¹

Molecule: O=c1oc2ccccc2c(O)c1Cc1c(O)c2ccccc2oc1=O [dicoumarol]
- IC50 (H. influenzae NfsB [3]): 120 µM

Molecule: Cc1cc2nc3c(=O)[nH]c(=O)nc-3n(C[C@H](O)[C@H](O)[C@H](O)COP(=O)(O)O)c2cc1C [flavin mononucleotide]
- TLC of flavin released from heat-denatured purified enzyme (H. influenzae NfsB [4]): tightly binds a flavin cofactor, most likely flavin mononucleotide (FMN)

Molecule: CC1=CC(=O)c2ccccc2C1=O [menadione]
- Michaelis-Menten kinetics by NADPH oxidation (kcat/KM) (H. influenzae NfsB [2]): 79340 M⁻¹ s⁻¹

Molecule: NC(=O)C1=CN([C@@H]2O[C@H](COP(=O)(O)OP(=O)(O)OC[C@H]3O[C@@H](n4cnc5c(N)ncnc54)[C@H](OP(=O)(O)O)[C@@H]3O)[C@@H](O)[C@H]2O)C=CC1 [NADPH]
- NAD(P)H oxidation at 340 nm with purified enzyme (H. influenzae NfsB [5]): requires NADPH as a cofactor and does not utilize NADH

Molecule: H. influenzae NfsB (Haemophilus influenzae Rd KW20)
- Km [6]: 500 µM

Molecule: O=[N+]([O-])c1ccc(O)cc1 [4-nitrophenol]
- enzyme turnover monitored at 450 nm; kcat/KM not determined (H. influenzae NfsB [7]): All three of these compounds also acted as substrates, with menadione showing relatively high activity and 4-nitrophenol showing relatively low
